“Also recorded” adds a separate entry of the source. Where two headings read alike, the source gives them in different places. Marks after values point to notes of the source that are not given here.
Experiments:
[1] = Vancomycin serum concentrations (trough and approach peak) by HPLC; assay type: in vivo, human; details: n = 374 ICU patients
Description: Ctrough means trough concentration that of blood samples collected 0.5 h before the next dose; Cappro peak means approach peak concentration that of the blood samples collected 1 h after completion of drug infusion.

[2] = cited from earlier work
Description: We reasonably fitted the plots of concentrations versus time with one-compartment models for most serum samples (n = 837) collected during the trough period (156 samples were collected during the approach peak period).

[3] = Population pharmacokinetic analysis of vancomycin (nonlinear mixed-effects modeling, Kinetica, one-compartment model)
Description: Data collected from patients’ medical records included age, total body weight, Sex, creatinine level, drug combination, and burn and continuous renal replacement therapy status (Burn-S, CRRT-S).
A total of 837 trough concentration (Ctrough) blood samples were collected 0.5 h before the next dose (after CRRT treatment for CRRT treatment patients), and 156 samples were collected at approach peak concentration (1 h after the peak concentration), both at the steady state (after the 6th dose) for most patients. All the samples (3–5 ml) were placed in 10 ml tubes containing coagulant and then centrifuged at 3000 rpm for 5 min. The supernatant serum was stored at − 80 °C for further testing.
The multilevel calibration was 0.4–100.0 μg/ml with calibration line slope consistently > 0.999. The RSD of intra-day and inter-day assays were less than 7%, and the recovery rate was 95.5–103.2%. Serum creatinine was detected by the creatine oxidase method with a biochemistry analyzer (Beckmann CX5).
As most of the trough concentrations of vancomycin was collected from sparse data at steady state, we fit the data with a one-compartment model to retrieve the pharmacokinetic parameters (CL and V).The covariate models and interindividual variability were expressed as following equation: βi=Ziβ+ηj, where βj denote as the parameter for the jth subject; Zj is amatrix depending on the covariates Zj. When no covariates are included, β is the (p*1) vector of the mean parameters; ηj is the interindividual variability that is assumed normal distribution with mean 0 and covariance matrix C (p*p).

[4] = Christine, 102 patients, unstable renal function
[5] = used as initial estimate, Chinese adult patients, ref Ji et al. [6]
[6] = values reported by other studies in non-ICU patients
[7] = basic model (no covariates), Chinese ICU adult patients, population mean (RSE%)

CN[C@H](CC(C)C)C(=O)N[C@H]1C(=O)N[C@@H](CC(N)=O)C(=O)N[C@H]2C(=O)N[C@H]3C(=O)N[C@H](C(=O)N[C@H](C(=O)O)c4cc(O)cc(O)c4-c4cc3ccc4O)[C@H](O)c3ccc(c(Cl)c3)Oc3cc2cc(c3O[C@@H]2O[C@H](CO)[C@@H](O)[C@H](O)[C@H]2O[C@H]2C[C@](C)(N)[C@H](O)[C@H](C)O2)Oc2ccc(cc2Cl)[C@H]1O [vancomycin]
Ctrough (trough concentration) ([1]; blood samples collected 0.5 h before the next dose, steady state (after the 6th dose), regimens 0.5 g qd to 1 g q12h): 16.3 ± 12.4 | Cappro peak (approach peak concentration) ([1]; blood samples collected 1 h after completion of drug infusion, steady state): 36.0 ± 19.4 | Final model of CL [2, 4]: CL(L·h^−1) = 2.97*(1 + 0.0205*(CLCr − CLCrMedian)) | V [2, 4]: 1.24 L/kg | V ([2]; ICU patients with Cr > 88.4 μmol/l): 148.19 L | V ([2]; ICU patients with Cr value below 88.4 μmol/l): 59.86 L | Final model of CL ([2]; Llopis, 30 ICU patients): CL(L·h^−1) = 0.034*CLCr(ml·min^−1) + 0.015* TBW | Final model of Vc (central compartment volume) ([2]; Llopis, 30 ICU patients): Vc (L) = 0.414* TBW | Final model of Vp (peripheral compartment volume) ([2]; Llopis, 30 ICU patients): Vp (L) = 1.32*TBW | Final model of CL ([2]; Natalia, 191 ICU patients): CL(ml·min^−1·kg^−1) = 0.67*CLCr (ml·min^−1 ·kg^−1) + AGE^−0.24 | Final model of V ([2]; Natalia, 191 ICU patients): V (L·kg^−1) = 0.82*2.49^A, A = 0 or 1 if Cr ≤ 88.4 or Cr > 88.4 μmol/L | Final model of CL ([2]; Yasuhara, 190 adult Japanese, if CLCr < 85): CL(L·h^−1) = 0.0487*CLCr(ml·min^−1), | CL ([2]; Yasuhara, 190 adult Japanese, if CLCr > 85): 3.51 L/h | initial pharmacokinetic parameter CL [2, 5]: 2.83 L/h | initial pharmacokinetic parameter V [2, 5]: 52.14 L | CL [2, 6]: 2.89 to 5.93 L/h | V [2, 6]: 31.24 to 91.76 L | CL (RSE%) [3, 7]: 2.63 (25.72) L/h | V (RSE%) [3, 7]: 55.32 (27.31) L | Final covariate equation of V ([3]; final model, Cr μmol/L, Age y, TBW kg): V = 46.47 − 0.04*Cr − 0.07*Age + 0.16* TBW | Final covariate equation of CL ([3]; final model, DA dopamine (1 not used, 2 used), Cr μmol/L, Burn-S (1 burn > 50%, 2 < 50%), TBW kg, CRRT-S (1 CRRT, 2 not)): CL = 0.78 + 0.036*DA − 0.007*Cr − 0.43*Burn-S + 0.067*TBW + 0.41*CRRT-S; also recorded: CL =0.78 + 0.036*DA − 0.007*Cr -0.43* Burn-S + 0.067*TBW + 0.41* CRRT-S | CL (RSE%) ([3]; final population model, Chinese ICU adult patients, one-compartment, EM algorithm, Kinetica 4.4.1, 294 patients for model building, serum HPLC, population mean): 3.16 (56.01) L/h

From PMC7846798, “Population pharmacokinetic modeling and clinical application of vancomycin in Chinese patients hospitalized in intensive care units” (Scientific Reports, 2021)
